Data: ChEMBL document CHEMBL1201862, “PubChem BioAssay data set” (2004)
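Five compound concentrations were applied to cells in 96-well plates for 48 hours; endpoints were derived by simple linear interpolation of the resulting dose-response curve. GI50 = concentration required for 50% inhibition of growth.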 The source made the active and inactive calls. Cut-off read from the data, not from the text of the source: active = GI50 up to about 1.1 µM and inactive = higher.

Tests used:
Test in all cases: NCI tumour cell line growth inhibition, 48 h
NCI-H23 = tested on: NCI-H23
OVCAR-4 = tested on: OVCAR-4
SR = tested on: SR
MDA-N = tested on: MDA-N
COLO 205 = tested on: COLO 205
U-251 = tested on: U-251
T47D = tested on: T47D
786-0 = tested on: 786-0
UO-31 = tested on: UO-31
HOP-62 = tested on: HOP-62
Malme-3M = tested on: Malme-3M
LOX IMVI = tested on: LOX IMVI
RPMI-8226 = tested on: RPMI-8226
MCF7 = tested on: MCF7
OVCAR-8 = tested on: OVCAR-8
MDA-MB-435 = tested on: MDA-MB-435
A549 = tested on: A549
DU-145 = tested on: DU-145
NCI-H522 = tested on: NCI-H522
SK-MEL-28 = tested on: SK-MEL-28

Measured: GI50

CNc1ccc(C)cc1S(=O)(=O)c1ccccc1[N+](=O)[O-]
inactive: NCI-H23 63 µM | OVCAR-4 25.2 µM | SR 51.3 µM | MDA-N 26.2 µM | COLO 205 65.6 µM | U-251 57.7 µM | T47D 29 µM | 786-0 64.6 µM | UO-31 52.5 µM | HOP-62 58.9 µM | Malme-3M 60.3 µM | LOX IMVI 30.9 µM | RPMI-8226 49.4 µM | MCF7 30 µM | OVCAR-8 78 µM | MDA-MB-435 25.5 µM | A549 41.3 µM | DU-145 > 100 µM | NCI-H522 31.8 µM | SK-MEL-28 38.8 µM

O=c1[nH]nc(Cc2ccccc2)n1/N=C/c1ccncc1
inactive: NCI-H23 > 100 µM | OVCAR-4 > 100 µM | SR > 100 µM | MDA-N > 100 µM | COLO 205 > 100 µM | U-251 > 100 µM | T47D > 100 µM | 786-0 > 100 µM | UO-31 > 100 µM | HOP-62 48.2 µM | Malme-3M > 100 µM | LOX IMVI > 100 µM | RPMI-8226 > 100 µM | MCF7 > 100 µM | OVCAR-8 > 100 µM | MDA-MB-435 > 100 µM | A549 > 100 µM | DU-145 > 100 µM | NCI-H522 > 100 µM | SK-MEL-28 > 100 µM

C=C1CCCCCCCCCCC12SCCC2CCCCSC (stereo not given)
inactive: NCI-H23 25.7 µM | OVCAR-4 39.8 µM | SR 33.1 µM | MDA-N 34.4 µM | COLO 205 19 µM | U-251 17.9 µM | T47D 17.9 µM | 786-0 29.2 µM | UO-31 35 µM | HOP-62 20 µM | Malme-3M 19.7 µM | LOX IMVI 19.5 µM | RPMI-8226 24.4 µM | MCF7 21 µM | OVCAR-8 28.8 µM | MDA-MB-435 26.1 µM | A549 34.3 µM | DU-145 40.6 µM | NCI-H522 17.2 µM | SK-MEL-28 26.5 µM

COc1cc(/C=C2\C[C@H]3[C@@H]4CCC5=CC(=O)CC[C@]5(C)[C@H]4CC[C@]3(C)C2=O)cc(OC)c1OC
inactive: NCI-H23 6.4 µM | OVCAR-4 6.12 µM | SR 3.04 µM | MDA-N 4.43 µM | COLO 205 4.32 µM | U-251 11.7 µM | T47D 2.04 µM | 786-0 23.1 µM | UO-31 2.72 µM | HOP-62 12.8 µM | Malme-3M 11.4 µM | LOX IMVI 7.94 µM | RPMI-8226 2.38 µM | MCF7 3.56 µM | OVCAR-8 4 µM | MDA-MB-435 3.36 µM | A549 4.15 µM | DU-145 19.5 µM | NCI-H522 3.2 µM | SK-MEL-28 15.9 µM

O=C1c2c(Br)sc(Br)c2[C@@H](Cl)[C@H]1Cl
inactive: NCI-H23 12.9 µM | OVCAR-4 18.2 µM | SR 2.81 µM | MDA-N 11 µM | COLO 205 15.7 µM | U-251 14.5 µM | T47D 19 µM | 786-0 24.5 µM | UO-31 20.2 µM | HOP-62 17.9 µM | Malme-3M 19.1 µM | LOX IMVI 15.2 µM | RPMI-8226 18.2 µM | MCF7 21.5 µM | OVCAR-8 15.1 µM | MDA-MB-435 19.3 µM | A549 29 µM | DU-145 18.7 µM | NCI-H522 3.07 µM | SK-MEL-28 23.3 µM
